Assays:
Type in all cases: in vivo
Hordeum vulgare = experiment: Seed germination and seedling shoot/root growth test in petridishes; conditions: control = 100%
Procedure, shortened: (§1)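 Ten seeds per 9.0 cm dish on filter paper wetted with 0.1, 0.01 or 0.001 μM compound solution (ethanol or acetone cosolvent, matched in controls), in triplicate. Incubated 9 days at 25.0±1.0 °C, 90% humidity, 4 hr light/day. Germination and shoot and root length expressed relative to control taken as 100%.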

[1] = system: Trigonella foenum-graecum; experiment: as above; conditions: for Percent (%) germination of seeds in relation to control on 9th day after sowing / Percent (%) root growth of seedlings in relation to control on 9th day after sowing / Percent (%) shoot growth of seedlings in relation to control on 9th day after sowing: Trigonella foenum graecum, control = 100%
Procedure, shortened: as §1

Triticum aestivum = experiment: as above; conditions: control = 100%
Procedure, shortened: as §1

Vigna radiata = experiment: as above; conditions: Vigna radiata, control = 100%
Procedure, shortened: as §1

Hibiscus sabdariffa [2] = experiment: Seed germination and seedling growth, comparison with GA3 (Example 4)
Experimental: (§2) 100 ml stalk solutions of 0.1 μM concentration were prepared by dissolving required amounts of various test compounds (depending upon their molecular weights) in minimum amount of ethanol or acetone and adding distilled water. From this stalk solution, 0.01 μM and 0.001 μM concentrations were prepared. Calliterpenone and calliterpenone di acetate was dissolved in 2.0 ml absolute ethanol (Merc), while; calliterpenone monoacetate, isopropylideno calliterpenone and trihydroxy calliterpenone were dissolved in 2.0 ml spectral grade acetone (Ranbaxy). The respective control test solutions of distilled water of each concentration also contained equal amount of absolute ethanol or acetone. For an assay, 10 seeds were placed on Whatman filter paper (moistened with 5.0 ml of test solution in a 9.0 cm diameter petridish (in triplicate). The pteridishes were incubated for 9 days in a germinator, maintained at 25.0±1.0° C. with 90% humidity and 4 hr light/day. At the end of incubation, observations were recorded on the seedlings in terms of germination, shoot and root growth. The data on the length of shoot and root of seedlings and number of seeds germinated in different concentrations of compounds were compared with the control, which was taken as 100%. The data thus obtained were presented in Table-1.
(§3) Effect of calliterpenone and its derivatives on seed germination and seedling growth in Hibiscus sabdariffa and Sesbania cannabina were measured in the similar way as these were measured in Example-1.

Sesbania cannabina [3] = experiment: as above
Experimental: as §2, §3

Hibiscus sabdariffa [4] = experiment: Antagonistic effect with Artemisia annua seed extract on germination and seedling growth; conditions: A. annua seed extract (1.3 g seeds/100 ml) alone or mixed 1:1 with 0.01 μm compound, control = 100%
Experimental: (§4) On the other hand, it is evident from Exp. 1-4 that phyllocladane diterpenenoids have produced germination and growth promoting activities on various plant species. To find out the combined effect of A. annua extract and phyllocladane diterpenoides on the germination and seedling growth of different plant species, 1:1 ratio of these compounds and A.annua extract were tested in the present experiment. For this, Hibiscus sabdariffa and Sesbania cannabina seeds were germinated in A.annua seed extract and solutions prepared by mixing this extract with 0.01 μm calliterpenone and calliterpenone mono-acetate respectively (Table 7). For the preparation of A.annua extract, 1.3 g seeds were soaked in 100 ml of distilled water for 24 hrs for testing on H. sabdariffa. Since, at this concentration, seeds of this species have shown 69% mortality which may be taken as good indicator. This effect was also recorded in S.cannabina. Since, in this case, seeds were almost half in weight as compared to the seeds of H. sabdariffa, accordingly, 0.65 g A. annua seeds were soaked in 100 ml of distilled water for 24 hrs to produce identical constraints in S. cannabina. For control, seeds were germinated in distilled water and all the observations were compared with it. […] Therefore, calliterpenone and its derivatives can be used to nullify the effects of other growth retardants/allelochemicals in the fields for their reclamation.

Sesbania cannabina [5] = experiment: as above; conditions: A. annua seed extract (0.65 g seeds/100 ml) alone or mixed 1:1 with 0.01 μm compound, control = 100%
Experimental: as §4

## CC(=O)OCC1(O)CC23CCC4C(C)(C)C(=O)CCC4(C)C2CCC1C3 (stereo not shown) [Calliterpenone Monoacetate, calliterpenone monoacetate]
Hordeum vulgare; 0.001 μM
  Percent (%) germination of seeds in relation to control on 9th day after sowing: 100%
  Percent (%) root growth of seedlings in relation to control on 9th day after sowing: 146%
  Percent (%) shoot growth of seedlings in relation to control on 9th day after sowing: 113%
Hordeum vulgare; 0.01 μM
  Percent (%) germination of seeds in relation to control on 9th day after sowing: 100%
  Percent (%) root growth of seedlings in relation to control on 9th day after sowing: 114%
  Percent (%) shoot growth of seedlings in relation to control on 9th day after sowing: 117%
Hordeum vulgare; 0.1 μM
  Percent (%) germination of seeds in relation to control on 9th day after sowing: 100%
  Percent (%) root growth of seedlings in relation to control on 9th day after sowing: 124%
  Percent (%) shoot growth of seedlings in relation to control on 9th day after sowing: 118%
[1]; 0.001 μM
  Percent (%) germination of seeds in relation to control on 9th day after sowing: 113%
  Percent (%) root growth of seedlings in relation to control on 9th day after sowing: 131%
  Percent (%) shoot growth of seedlings in relation to control on 9th day after sowing: 135%
[1]; 0.01 μM
  Percent (%) germination of seeds in relation to control on 9th day after sowing: 113%
  Percent (%) root growth of seedlings in relation to control on 9th day after sowing: 95%
  Percent (%) shoot growth of seedlings in relation to control on 9th day after sowing: 134%
[1]; 0.1 μM
  Percent (%) germination of seeds in relation to control on 9th day after sowing: 113%
  Percent (%) root growth of seedlings in relation to control on 9th day after sowing: 81%
  Percent (%) shoot growth of seedlings in relation to control on 9th day after sowing: 133%
[1]; Trigonella foenum-graceum, concentration not specified
  Seed germination as compared to 100% in control: 113%
Triticum aestivum; 0.001 μM
  Percent (%) germination of seeds in relation to control on 9th day after sowing: 100%
  Percent (%) root growth of seedlings in relation to control on 9th day after sowing: 145%
  Percent (%) shoot growth of seedlings in relation to control on 9th day after sowing: 106%
Triticum aestivum; 0.01 μM
  Percent (%) germination of seeds in relation to control on 9th day after sowing: 100%
  Percent (%) root growth of seedlings in relation to control on 9th day after sowing: 102%
  Percent (%) shoot growth of seedlings in relation to control on 9th day after sowing: 107%
Triticum aestivum; 0.1 μM
  Percent (%) germination of seeds in relation to control on 9th day after sowing: 100%
  Percent (%) root growth of seedlings in relation to control on 9th day after sowing: 88%
  Percent (%) shoot growth of seedlings in relation to control on 9th day after sowing: 109%
Vigna radiata; 0.001 μM
  Percent (%) germination of seeds in relation to control on 9th day after sowing: 100%
  Percent (%) root growth of seedlings in relation to control on 9th day after sowing: 104%
  Percent (%) shoot growth of seedlings in relation to control on 9th day after sowing: 138%
Vigna radiata; 0.01 μM
  Percent (%) germination of seeds in relation to control on 9th day after sowing: 150%
  Percent (%) root growth of seedlings in relation to control on 9th day after sowing: 85%
  Percent (%) shoot growth of seedlings in relation to control on 9th day after sowing: 130%
Vigna radiata; 0.1 μM
  Percent (%) germination of seeds in relation to control on 9th day after sowing: 200%
  Percent (%) root growth of seedlings in relation to control on 9th day after sowing: 67%
  Percent (%) shoot growth of seedlings in relation to control on 9th day after sowing: 123%
Hibiscus sabdariffa [2]
  Enhancement in germination (in words): did not produce any enhancement in germination
Hibiscus sabdariffa [2]; 0.001 μM
  Seed Ger.: 3
  Root Growth (mm) 3rd Day: 16.3 mm
  Shoot growth 3rd Day: 28.8
  Root Growth (mm) 6th Day: 19.3 mm
  Shoot growth 6th Day: 85.8
  Root Growth (mm) 9th Day: 24.8 mm
  Shoot growth 9th Day: 91.6
Hibiscus sabdariffa [2]; 0.01 μM
  Seed Ger.: 2
  Root Growth (mm) 3rd Day: 17.5 mm
  Shoot growth 3rd Day: 33.5
  Root Growth (mm) 6th Day: 18.3 mm
  Shoot growth 6th Day: 67.5
  Root Growth (mm) 9th Day: 21.3 mm
  Shoot growth 9th Day: 75.2
Hibiscus sabdariffa [2]; 0.1 μM
  Seed Ger.: 0
Sesbania cannabina [3]; 0.001 μM
  Root growth as compared to respective control: 114%
  Seed Ger.: 3
  Shoot growth as compared to respective control: 109%
  Root Growth (mm) 3rd Day: 40.0 mm
  Shoot growth 3rd Day: 44.0
  Root Growth (mm) 6th Day: 40.0 mm
  Shoot growth 6th Day: 110.0
Sesbania cannabina [3]; 0.001 μM, 9th day
  Root Growth (mm) 9th Day: 57.0 mm
  Root growth as compared to GA3 taken as 100%: 143%
  Shoot growth 9th Day: 120
Sesbania cannabina [3]; 0.01 μM
  Seed Ger.: 3
  Root Growth (mm) 3rd Day: 28.3 mm
  Shoot growth 3rd Day: 20.0
  Root Growth (mm) 6th Day: 28.4 mm
  Shoot growth 6th Day: 57.8
Sesbania cannabina [3]; 0.01 μM, 9th day
  Root Growth (mm) 9th Day: 45.1 mm
  Shoot growth 9th Day: 78.2
Sesbania cannabina [3]; 0.1 μM
  Seed Ger.: 2
  Root Growth (mm) 3rd Day: 5.5 mm
  Shoot growth 3rd Day: 11.0
  Root Growth (mm) 6th Day: 7.5 mm
  Shoot growth 6th Day: 50.0
Sesbania cannabina [3]; 0.1 μM, 9th day
  Root Growth (mm) 9th Day: 23.0 mm
  Shoot growth 9th Day: 66.0
Sesbania cannabina [3]; concentration not given
  Germination as compared to GA3 treatments: 150%
  Germination as compared to its control: 150%
Hibiscus sabdariffa [4]
  Percent (%) germination in relation to control on the 9th day after sowing: completely checked the inhibitory effect
  Percent (%) seedling growth, Root, in relation to control on the 9th day after sowing: 172%
  Percent (%) seedling growth, Stem, in relation to control on the 9th day after sowing: 169%
Sesbania cannabina [5]
  Percent (%) germination in relation to control on the 9th day after sowing: completely checked the inhibitory effect
  Percent (%) seedling growth, Root, in relation to control on the 9th day after sowing: 175%
  Percent (%) seedling growth, Stem, in relation to control on the 9th day after sowing: 175%
